{"source": "patent US6488953B2", "about": "“Oral transmucosal delivery” (Controlled Therapeutics (Scotland) Ltd., priority 1998, dated 2002)", "key": {"[1]": {"assay": "Lysozyme in-vitro release from dried slices (BCA assay)", "format": "physicochemical", "settings": "five dried slices in 30 ml demineralised water, after 24 hours", "experimental": "To determine the release profile of lysozyme from dried slices, five slices (0.86 g) were placed in a bottle and 30 ml of demineralised water added. Samples were taken regularly and analysed for protein using the BCA assay. A total of 22.9 mg (88.4%) was released after 24 hours."}, "[2]": {"assay": "Apomorphine plasma levels after buccal inserts", "format": "in vivo, human", "settings": "one subject, insert containing 20 mg", "experimental": "1.1 mm thick inserts containing 5, 10 and 20 mg of apomorphine were tested for drug release in six subjects. The levels of drug observed in plasma was 0.2 to 0.8 ng/ml for five of the subjects and reached 5 ng/ml for one subject after administering an insert containing 20 mg of apomorphine."}, "[3]": {"assay": "Apomorphine in-vivo release, 0.6 mm inserts", "parameters": "species or system human", "settings": "individual subjects 1-8", "experimental": "Inserts were prepared of thickness 0.6 mm and the release profile in-vitro compared with those of the 1.1 mm thick inserts.\nA study was carried out in eight subjects. These included two subjects from the previous study and six new subjects."}, "[4]": {"assay": "Microbiological testing in-vitro, each drug alone", "format": "cell-based", "settings": "examined alone", "source_text": "(§1) A microbiological assay was developed to examine the efficacy of the colistin sulphate and tobramycin when loaded and released from the polymer at the same time. organisms were selected which were sensitive to only one of the antibiotics."}, "[5]": {"assay": "In-vivo release of colistin sulphate and tobramycin from buccal inserts", "settings": "four subjects", "quoted_text": "The release of the two drugs was examined in four healthy subjects. The insert was placed against the buccal mucosa in the upper gingival tissue. Eating and smoking was not permitted during the study, drinking of tea, coffee or soft drinks was allowed."}, "A.Xylosoxidans": {"system": "A.Xylosoxidans", "assay": "MIC microbiological assay", "format": "cell-based", "settings": "single drug", "source_text": "as §1"}, "S.Aureus": {"system": "S.Aureus", "assay": "MIC microbiological assay", "format": "cell-based", "settings": "single drug", "source_text": "as §1"}, "[6]": {"assay": "Oral dissolution model, chemical (HPLC) assay of tobramycin", "format": "physicochemical", "settings": "for Chemical Dissolution (concentration in eluate): cells 1-3", "experimental": "(§2) Six cells were sterilised by autoclaving and then connected to a Duran bottle of sterile water. The flow of water into the cell was controlled by a peristaltic pump (Watson Marlow, Falmouth, UK) to a rate of 0.5 ml/minute. Two different dosage forms (5.8 and 10.5 mg tobramycin) as 9.2 mm discs of thickness 1.7 mm and 130 mg weight were tested by placing directly under the inflow tube and media allowed to flow slowly across them. The dissolution cells were kept at an angle of about 10 degrees to the horizontal to allow flow away from the test units and towards the outflow tube where it was either run to waste or sampled for test. Samples of 2 ml were collected at various timepoints up to 3 hours and divided for chemical (HPLC) and microbiological assay. Tobramycin chemical analysis was carried out using a Dionex HPLC method. The microbiological assay was carried out by double diluting the eluted fractions with broth. These were then spiked with a known number of micro-organisms and incubated. The last tube without growth was then noted. By carrying this out in parallel against a series of prepared standards the inhibitory concentration could be derived."}, "micro-organisms": {"system": "micro-organisms", "assay": "Oral dissolution model, microbiological assay of eluted fractions", "format": "cell-based", "settings": "cells 1-3", "experimental": "as §2"}}, "note": "“And” between values parts separate entries of the source, which are not always exact repeats. Equal values may be shown once."}
{"molecule": "Lysozyme", "values": [{"measurement": "total released", "setting": "[1]", "result": 22.9, "unit": "mg"}, {"measurement": "total released (%)", "setting": "[1]", "result": 88.4, "unit": "%"}]}
{"molecule": "CN1CCc2cccc3c2[C@H]1Cc1ccc(O)c(O)c1-3", "note": "[Apomorphine]", "values": [{"measurement": "levels of drug observed in plasma", "setting": "[2]", "result": 5, "unit": "ng/mL"}, {"measurement": "% RELEASE", "setting": "[3]; 10 mg", "result": "6.4% and 42.8% and 30.4% and 10.9% and 0.48% and 25.1% and 26.0% and 3.4%"}, {"measurement": "% RELEASE", "setting": "[3]; 18 mg", "result": "2.64% and 15.2% and 26.3% and 21.5% and 4.1% and 7.5% and 49.2% and 19.4%"}, {"measurement": "% RELEASE", "setting": "[3]; 27 mg (am.)", "result": "0.0% and 1.1% and 24.8% and 9.9% and 2.7% and 6.2% and 17.7% and 1.3%"}, {"measurement": "% RELEASE", "setting": "[3]; 27 mg (pm.)", "result": "0.0% and 6.2% and 32.6% and 23.6% and 4.4% and 1.3% and 29.6% and 3.0%"}]}
{"molecule": "Colistin Sulphate", "values": [{"measurement": "microbiological activity", "setting": "[4]", "result": "microbiologically active"}, {"measurement": "Mean Amount of Drug Released (%)", "setting": "[5]; insert thickness 0.4 mm, 1 Hour", "result": 48.8, "unit": "%"}, {"measurement": "Mean Amount of Drug Released (%)", "setting": "[5]; insert thickness 0.4 mm, 3 Hours", "result": 98.6, "unit": "%"}, {"measurement": "Mean Amount of Drug Released (%)", "setting": "[5]; insert thickness 0.6 mm, 1 Hour", "result": 32.4, "unit": "%"}, {"measurement": "Mean Amount of Drug Released (%)", "setting": "[5]; insert thickness 0.6 mm, 3 Hours", "result": 92.8, "unit": "%"}, {"measurement": "Mean Amount of Drug Released (%)", "setting": "[5]; insert thickness 0.8 mm, 1 Hour", "result": 26.7, "unit": "%"}, {"measurement": "Mean Amount of Drug Released (%)", "setting": "[5]; insert thickness 0.8 mm, 3 Hours", "result": 83.4, "unit": "%"}, {"measurement": "Mean Amount of Drug Released (%)", "setting": "[5]; insert thickness 1.1 mm, 3 Hours", "result": 57.9, "unit": "%"}, {"measurement": "MIC", "setting": "A.Xylosoxidans", "result": 8, "unit": "μ μgml^−1"}, {"measurement": "MIC", "setting": "S.Aureus", "result": ">32", "unit": "μ μgml^−1"}]}
{"molecule": "NC[C@H]1O[C@H](O[C@H]2[C@H](O)[C@@H](O[C@H]3O[C@H](CO)[C@@H](O)[C@H](N)[C@H]3O)[C@H](N)C[C@@H]2N)[C@H](N)C[C@@H]1O", "note": "[Tobramycin]", "values": [{"measurement": "Chemical Dissolution (concentration in eluate)", "setting": "[6]; 5 mg Dose, 0.25 hrs", "result": "35.5 µg/mL and 26.7 µg/mL and 33.4 µg/mL"}, {"measurement": "Chemical Dissolution (concentration in eluate)", "setting": "[6]; 5 mg Dose, 1 hrs", "result": "23.7 µg/mL and 17.7 µg/mL and 24.0 µg/mL"}, {"measurement": "Chemical Dissolution (concentration in eluate)", "setting": "[6]; 5 mg Dose, 2 hrs", "result": "14.0 µg/mL and 15.8 µg/mL and 18.6 µg/mL"}, {"measurement": "Chemical Dissolution (concentration in eluate)", "setting": "[6]; 5 mg Dose, 3 hrs", "result": "14.0 µg/mL and 12.0 µg/mL and 15.4 µg/mL"}, {"measurement": "Chemical Dissolution (concentration in eluate)", "setting": "[6]; 10 mg Dose, 0.25 hrs", "result": "105.6 µg/mL and 85.3 µg/mL and 64.4 µg/mL"}, {"measurement": "Chemical Dissolution (concentration in eluate)", "setting": "[6]; 10 mg Dose, 1 hrs", "result": "65.4 µg/mL and 44.6 µg/mL and 34.8 µg/mL"}, {"measurement": "Chemical Dissolution (concentration in eluate)", "setting": "[6]; 10 mg Dose, 2 hrs", "result": "48.7 µg/mL and 36.9 µg/mL and 27.9 µg/mL"}, {"measurement": "Chemical Dissolution (concentration in eluate)", "setting": "[6]; 10 mg Dose, 3 hrs", "result": "36.5 µg/mL and 32.0 µg/mL and 27.0 µg/mL"}, {"measurement": "time for which controlled release is maintained", "setting": "[6]; oral dissolution model, 0.5 ml/minute", "result": 3, "unit": "h"}, {"measurement": "microbiological activity", "setting": "[4]", "result": "microbiologically active"}, {"measurement": "Microbiological Measure of Activity (derived concentration)", "setting": "micro-organisms; 5 mg Dose, 0.25 hrs", "result": "32 mcg/ml and 36 mcg/ml"}, {"measurement": "Microbiological Measure of Activity (derived concentration)", "setting": "micro-organisms; 5 mg Dose, 2 hrs", "result": "16 mcg/ml and 18 mcg/ml"}, {"measurement": "Microbiological Measure of Activity (derived concentration)", "setting": "micro-organisms; 5 mg Dose, 3 hrs", "result": "16 mcg/ml and 18 mcg/ml"}, {"measurement": "Microbiological Measure of Activity (derived concentration)", "setting": "micro-organisms; 10 mg Dose, 0.25 hrs", "result": 64, "unit": "mcg/ml"}, {"measurement": "Microbiological Measure of Activity (derived concentration)", "setting": "micro-organisms; 10 mg Dose, 1 hrs", "result": "64 mcg/ml and 32 mcg/ml"}, {"measurement": "Microbiological Measure of Activity (derived concentration)", "setting": "micro-organisms; 10 mg Dose, 2 hrs", "result": "32 mcg/ml and 16 mcg/ml"}, {"measurement": "Microbiological Measure of Activity (derived concentration)", "setting": "micro-organisms; 10 mg Dose, 3 hrs", "result": "32 mcg/ml and 16 mcg/ml"}, {"measurement": "MIC", "setting": "A.Xylosoxidans", "result": ">256", "unit": "μ μgml^−1"}, {"measurement": "MIC", "setting": "S.Aureus", "result": 4, "unit": "μ μgml^−1"}]}
